Results as given in US9815847B2 (Icahn School of Medicine at Mount Sinai, priority 2013, dated 2017).

Assays:
K562 = test: Cytotoxicity assay, dose response end point; assay type: cell-based; details: Homo sapiens; K562, chronic myelogenous leukemia; 96 h
Description: (§1) The following tumor cell lines were tested using a dose response end point assay system with compound (8h). The cells were grown in either DMEM or RPMI supplemented with 10% fetal bovine serum and 1 unit/mL Penicillin-Streptomycin solution. The tumor cells were plated into 6-well dishes at a cell density of 1.0×10^5 cells/mL/well and the test compound was added 24 h. later at various concentrations. Cell counts were determined from duplicate wells after 96 h. of treatment. The total number of viable cells was determined by trypan blue exclusion.

U937 = test: Cytotoxicity assay, dose response end point; assay type: cell-based; details: Homo sapiens, U-937; U937, histiocytic lymphoma; 96 h
Description: as §1

BT474 = test: Cytotoxicity assay, dose response end point; assay type: cell-based; details: Homo sapiens, BT-474; BT474, Breast carcinoma; 96 h
Description: as §1

KG-1a = test: Cytotoxicity assay, dose response end point; assay type: cell-based; details: Homo sapiens, acute myelogenous leukemia, 96 h
Description: as §1

MIA-PaCa-2 = test: Cytotoxicity assay, dose response end point; assay type: cell-based; details: Homo sapiens; MIA-PaCa-2, pancreatic carcinoma; 96 h
Description: as §1

CEM = test: Cytotoxicity assay, dose response end point; assay type: cell-based; details: Homo sapiens, CCRF-CEM, T-cell leukemia, 96 h
Description: as §1

DAUDI = test: Cytotoxicity assay, dose response end point; assay type: cell-based; details: Homo sapiens, Burkitt's lymphoma, 96 h
Description: as §1

U266 = test: Cytotoxicity assay, dose response end point; assay type: cell-based; details: Homo sapiens, U-266; U266, multiple myeloma; 96 h
Description: as §1

MES-SA = test: Cytotoxicity assay, dose response end point; assay type: cell-based; details: Homo sapiens, uterine sarcoma, 96 h
Description: as §1

HELA = test: Cytotoxicity assay, dose response end point; assay type: cell-based; details: Homo sapiens, Cervical adenocarinoma, 96 h
Description: as §1

HEL = test: Cytotoxicity assay, dose response end point; assay type: cell-based; details: human erythroleukemia, 96 h
Description: as §1

Z138C = test: Cytotoxicity assay, dose response end point; assay type: cell-based; details: mantle cell lymphoma, 96 h
Description: as §1

32D-T315I = test: Cytotoxicity assay, dose response end point; assay type: cell-based; details: chronic myelogenous leukemia, 96 h
Description: as §1

HCT-116 = test: Cytotoxicity assay, dose response end point; assay type: cell-based; details: Homo sapiens; HCT-116, colon cancer; 96 h
Description: as §1

PIM1 = target: T1, PIM1 (Homo sapiens, UniProt P11309); test: Kinase inhibition assay; assay type: biochemical; details: 10 μM ATP; 5-dose IC50 mode
T1 construct: purchased Reaction Biology Corporation
T1 sequence (P11309 whole entry): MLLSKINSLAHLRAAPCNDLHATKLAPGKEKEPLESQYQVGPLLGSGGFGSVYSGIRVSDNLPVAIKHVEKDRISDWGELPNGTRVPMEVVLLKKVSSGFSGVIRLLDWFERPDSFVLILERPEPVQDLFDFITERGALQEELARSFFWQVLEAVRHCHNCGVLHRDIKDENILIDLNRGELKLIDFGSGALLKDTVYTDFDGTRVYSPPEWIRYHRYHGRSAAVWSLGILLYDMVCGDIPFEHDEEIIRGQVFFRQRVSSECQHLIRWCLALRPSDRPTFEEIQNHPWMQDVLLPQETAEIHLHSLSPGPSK
Description: (§2) Kinase assays were performed at Reaction Biology Corporation. To a freshly prepared buffer solution was added the target kinase at a concentration of […]. The contents were mixed gently, and then compound 8h dissolved in DMSO was added to the reaction mixture in the appropriate concentration. The mixture was incubated at room temperature for 30 min. prior to addition of ATP to initiate the reaction. Compound 8h was tested in a 5-dose IC50 mode with 10-fold serial dilutions starting at 10 μM. For each of the kinases, a control compound in a 10-dose IC50 mode with 3-fold serial dilutions starting at 20 μM. The control compounds were GW5074 (3-(3,5-dibromo-4-hydroxy-benzylidene)-5-iodo-1,3-dihydro-indol-2-one) for BRAF, CK2a and RAF1, D4476 (4-[4-(2,3-dihydro-1,4-benzodioxin-6-yl)-5-(2-pyridinyl)-1H-imidazol-2-yl]benzamide) for CK1d; Wee1 inhibitor (4-(2-chlorophenyl)-9-hydroxypyrrolo[3,4-c]carbazole-1,3-(2H,6H)-dione) for WEE1 and saturosporine for other kinases. Reaction was carried out at 10 μM ATP concentration.

JAK3 = target: T2, JAK3 (Homo sapiens, UniProt P52333); test: Kinase inhibition assay; assay type: biochemical; details: 10 μM ATP; 5-dose IC50 mode
T2 construct: purchased Reaction Biology Corporation
T2 sequence (P52333 whole entry): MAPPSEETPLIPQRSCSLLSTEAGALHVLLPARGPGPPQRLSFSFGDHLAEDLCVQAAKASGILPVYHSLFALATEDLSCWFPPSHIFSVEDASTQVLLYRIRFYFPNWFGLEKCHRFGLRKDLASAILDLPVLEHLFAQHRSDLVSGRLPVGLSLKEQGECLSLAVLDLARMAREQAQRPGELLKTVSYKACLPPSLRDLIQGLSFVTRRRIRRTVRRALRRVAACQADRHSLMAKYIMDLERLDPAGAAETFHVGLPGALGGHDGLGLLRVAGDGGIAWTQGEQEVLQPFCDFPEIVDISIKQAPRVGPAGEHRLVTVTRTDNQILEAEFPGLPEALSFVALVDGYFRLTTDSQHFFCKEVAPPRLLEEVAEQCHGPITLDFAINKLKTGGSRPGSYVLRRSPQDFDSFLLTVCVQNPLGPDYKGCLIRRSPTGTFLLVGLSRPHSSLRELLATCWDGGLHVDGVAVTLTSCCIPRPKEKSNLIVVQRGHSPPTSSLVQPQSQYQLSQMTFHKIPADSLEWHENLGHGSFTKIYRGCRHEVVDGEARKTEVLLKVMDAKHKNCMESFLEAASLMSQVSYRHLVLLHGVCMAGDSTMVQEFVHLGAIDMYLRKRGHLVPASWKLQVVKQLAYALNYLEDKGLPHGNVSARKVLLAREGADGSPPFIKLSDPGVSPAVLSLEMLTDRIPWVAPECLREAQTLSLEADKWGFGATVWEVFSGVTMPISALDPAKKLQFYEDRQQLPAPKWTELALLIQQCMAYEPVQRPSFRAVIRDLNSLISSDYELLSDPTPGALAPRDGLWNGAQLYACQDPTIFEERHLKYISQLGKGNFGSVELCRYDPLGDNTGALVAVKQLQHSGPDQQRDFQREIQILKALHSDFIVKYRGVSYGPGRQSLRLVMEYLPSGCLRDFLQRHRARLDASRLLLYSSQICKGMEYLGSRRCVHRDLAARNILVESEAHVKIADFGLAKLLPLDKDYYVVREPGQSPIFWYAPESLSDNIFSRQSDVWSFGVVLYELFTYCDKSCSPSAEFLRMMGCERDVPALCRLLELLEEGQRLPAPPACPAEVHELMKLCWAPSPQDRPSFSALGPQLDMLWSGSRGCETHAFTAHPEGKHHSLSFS
Description: as §2

ABL1 = target: T3, ABL1 (Homo sapiens, UniProt P00519); test: Kinase inhibition assay; assay type: biochemical; details: 10 μM ATP; 5-dose IC50 mode
T3 construct: purchased Reaction Biology Corporation
T3 sequence (P00519 whole entry): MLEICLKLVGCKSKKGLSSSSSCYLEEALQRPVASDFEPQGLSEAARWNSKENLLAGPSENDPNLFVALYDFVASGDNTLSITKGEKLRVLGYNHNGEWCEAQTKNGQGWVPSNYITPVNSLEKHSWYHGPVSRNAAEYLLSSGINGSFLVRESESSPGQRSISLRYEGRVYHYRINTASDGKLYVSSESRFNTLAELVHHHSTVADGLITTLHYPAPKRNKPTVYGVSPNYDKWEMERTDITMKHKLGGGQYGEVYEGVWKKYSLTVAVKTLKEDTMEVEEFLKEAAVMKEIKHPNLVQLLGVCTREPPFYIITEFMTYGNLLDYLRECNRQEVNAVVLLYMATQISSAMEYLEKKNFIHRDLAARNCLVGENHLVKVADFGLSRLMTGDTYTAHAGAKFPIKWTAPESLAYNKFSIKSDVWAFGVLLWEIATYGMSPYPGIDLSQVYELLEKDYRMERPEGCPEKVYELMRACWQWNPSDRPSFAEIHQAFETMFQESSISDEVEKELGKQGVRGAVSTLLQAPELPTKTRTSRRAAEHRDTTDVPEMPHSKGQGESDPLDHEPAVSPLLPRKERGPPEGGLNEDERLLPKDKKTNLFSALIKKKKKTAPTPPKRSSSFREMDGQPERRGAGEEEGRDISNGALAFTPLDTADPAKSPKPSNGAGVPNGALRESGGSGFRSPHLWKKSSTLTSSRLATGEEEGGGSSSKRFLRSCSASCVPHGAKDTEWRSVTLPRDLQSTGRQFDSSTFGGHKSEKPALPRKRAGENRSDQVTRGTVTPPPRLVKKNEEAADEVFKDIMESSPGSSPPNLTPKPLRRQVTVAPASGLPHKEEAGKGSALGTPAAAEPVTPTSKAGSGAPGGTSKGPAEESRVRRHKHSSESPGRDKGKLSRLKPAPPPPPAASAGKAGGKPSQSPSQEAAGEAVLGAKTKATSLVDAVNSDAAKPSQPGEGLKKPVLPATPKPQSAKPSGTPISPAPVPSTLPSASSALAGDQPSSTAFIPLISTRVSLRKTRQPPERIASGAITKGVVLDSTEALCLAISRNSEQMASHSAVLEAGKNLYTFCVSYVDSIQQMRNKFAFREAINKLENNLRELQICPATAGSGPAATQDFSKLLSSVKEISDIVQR
Description: as §2

CDK6/cyclin D1 = target: T4, CDK6/cyclin D1 (Homo sapiens, UniProt Q00534); test: Kinase inhibition assay; assay type: biochemical; details: 10 μM ATP; 5-dose IC50 mode
T4 construct: purchased Reaction Biology Corporation
Description: as §2

RSK4 = target: T5, RSK4 (Homo sapiens, UniProt Q9UK32); test: Kinase inhibition assay; assay type: biochemical; details: 10 μM ATP; 5-dose IC50 mode
T5 construct: purchased Reaction Biology Corporation
Description: as §2

c-Src = target: T6, c-Src (Homo sapiens, UniProt P12931); test: Kinase inhibition assay; assay type: biochemical; details: 10 μM ATP; 5-dose IC50 mode
T6 construct: purchased Reaction Biology Corporation
Description: as §2

CDK5/p35 = target: T7, CDK5/p35 (Homo sapiens, UniProt Q00535); test: Kinase inhibition assay; assay type: biochemical; details: 10 μM ATP; 5-dose IC50 mode
T7 construct: purchased Reaction Biology Corporation
Description: as §2

CK2a2 = target: T8, CK2a2 (Homo sapiens, UniProt P19784); test: Kinase inhibition assay; assay type: biochemical; details: 10 μM ATP; 5-dose IC50 mode
T8 construct: purchased Reaction Biology Corporation
Description: as §2

FGFR1 = target: T9, FGFR1 (Homo sapiens, UniProt P11362); test: Kinase inhibition assay; assay type: biochemical; details: 10 μM ATP; 5-dose IC50 mode
T9 construct: purchased Reaction Biology Corporation
T9 sequence (P11362 22-822): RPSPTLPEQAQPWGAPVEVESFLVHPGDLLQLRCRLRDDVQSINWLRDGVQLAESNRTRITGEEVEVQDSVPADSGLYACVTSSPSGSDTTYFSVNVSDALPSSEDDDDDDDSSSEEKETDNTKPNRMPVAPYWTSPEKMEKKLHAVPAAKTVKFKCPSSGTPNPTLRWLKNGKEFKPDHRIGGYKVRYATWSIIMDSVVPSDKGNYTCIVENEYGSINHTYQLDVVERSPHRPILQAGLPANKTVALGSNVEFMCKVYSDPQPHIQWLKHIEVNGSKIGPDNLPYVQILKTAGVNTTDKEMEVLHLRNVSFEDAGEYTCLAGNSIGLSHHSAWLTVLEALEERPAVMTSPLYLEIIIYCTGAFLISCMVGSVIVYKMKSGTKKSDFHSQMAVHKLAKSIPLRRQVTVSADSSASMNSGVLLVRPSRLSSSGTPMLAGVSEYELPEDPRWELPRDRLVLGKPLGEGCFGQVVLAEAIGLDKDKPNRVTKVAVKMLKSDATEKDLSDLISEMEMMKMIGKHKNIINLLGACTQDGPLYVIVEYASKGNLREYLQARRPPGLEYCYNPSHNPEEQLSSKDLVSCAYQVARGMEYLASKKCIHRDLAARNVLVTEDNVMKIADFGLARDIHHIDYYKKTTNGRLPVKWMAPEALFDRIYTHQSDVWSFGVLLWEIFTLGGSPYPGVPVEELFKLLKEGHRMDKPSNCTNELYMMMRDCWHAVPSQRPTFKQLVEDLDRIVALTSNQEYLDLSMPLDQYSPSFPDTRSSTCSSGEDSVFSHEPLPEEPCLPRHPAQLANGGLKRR
Description: as §2

PIM2 = target: T10, PIM2 (Homo sapiens, UniProt Q9P1W9); test: Kinase inhibition assay; assay type: biochemical; details: 10 μM ATP; 5-dose IC50 mode
T10 construct: purchased Reaction Biology Corporation
Description: as §2

Aurora A = target: T11, Aurora A (Homo sapiens, UniProt O14965); test: Kinase inhibition assay; assay type: biochemical; details: 10 μM ATP; 5-dose IC50 mode
T11 construct: purchased Reaction Biology Corporation
Description: as §2

FLT3 = target: T12, FLT3 (Homo sapiens, UniProt P36888); test: Kinase inhibition assay; assay type: biochemical; details: 10 μM ATP; 5-dose IC50 mode
T12 construct: purchased Reaction Biology Corporation
T12 sequence (P36888 27-993): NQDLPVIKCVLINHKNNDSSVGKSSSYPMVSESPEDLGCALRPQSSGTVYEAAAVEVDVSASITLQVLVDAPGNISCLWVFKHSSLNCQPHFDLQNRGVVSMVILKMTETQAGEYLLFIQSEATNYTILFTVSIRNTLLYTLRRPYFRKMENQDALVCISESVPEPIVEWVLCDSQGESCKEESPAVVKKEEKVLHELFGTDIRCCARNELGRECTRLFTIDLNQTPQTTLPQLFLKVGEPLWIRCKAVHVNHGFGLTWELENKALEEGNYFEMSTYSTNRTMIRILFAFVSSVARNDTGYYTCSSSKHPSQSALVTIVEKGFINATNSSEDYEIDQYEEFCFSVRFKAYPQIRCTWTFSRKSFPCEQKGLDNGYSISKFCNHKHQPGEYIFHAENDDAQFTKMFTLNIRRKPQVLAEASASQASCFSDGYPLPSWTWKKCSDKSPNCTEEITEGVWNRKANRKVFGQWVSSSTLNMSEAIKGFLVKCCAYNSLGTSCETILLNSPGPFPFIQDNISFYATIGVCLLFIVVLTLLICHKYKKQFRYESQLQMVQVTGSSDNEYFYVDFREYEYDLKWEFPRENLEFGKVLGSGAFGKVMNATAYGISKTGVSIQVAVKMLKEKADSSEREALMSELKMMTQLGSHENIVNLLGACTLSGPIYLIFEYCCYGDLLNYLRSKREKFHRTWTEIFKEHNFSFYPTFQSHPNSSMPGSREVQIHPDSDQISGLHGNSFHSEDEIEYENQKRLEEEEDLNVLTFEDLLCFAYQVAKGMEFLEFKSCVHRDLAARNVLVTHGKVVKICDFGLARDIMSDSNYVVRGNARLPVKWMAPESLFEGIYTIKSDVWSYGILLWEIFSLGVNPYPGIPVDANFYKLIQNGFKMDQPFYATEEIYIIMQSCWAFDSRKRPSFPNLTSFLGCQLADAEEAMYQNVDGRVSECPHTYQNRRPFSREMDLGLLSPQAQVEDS
Description: as §2

PLK2 = target: T13, PLK2 (Homo sapiens, UniProt Q9NYY3); test: Kinase inhibition assay; assay type: biochemical; details: 10 μM ATP; 5-dose IC50 mode
T13 construct: purchased Reaction Biology Corporation
Description: as §2

CHK1 = target: T14, CHK1 (Homo sapiens, UniProt O14757); test: Kinase inhibition assay; assay type: biochemical; details: 10 μM ATP; 5-dose IC50 mode
T14 construct: purchased Reaction Biology Corporation
T14 sequence (O14757 whole entry): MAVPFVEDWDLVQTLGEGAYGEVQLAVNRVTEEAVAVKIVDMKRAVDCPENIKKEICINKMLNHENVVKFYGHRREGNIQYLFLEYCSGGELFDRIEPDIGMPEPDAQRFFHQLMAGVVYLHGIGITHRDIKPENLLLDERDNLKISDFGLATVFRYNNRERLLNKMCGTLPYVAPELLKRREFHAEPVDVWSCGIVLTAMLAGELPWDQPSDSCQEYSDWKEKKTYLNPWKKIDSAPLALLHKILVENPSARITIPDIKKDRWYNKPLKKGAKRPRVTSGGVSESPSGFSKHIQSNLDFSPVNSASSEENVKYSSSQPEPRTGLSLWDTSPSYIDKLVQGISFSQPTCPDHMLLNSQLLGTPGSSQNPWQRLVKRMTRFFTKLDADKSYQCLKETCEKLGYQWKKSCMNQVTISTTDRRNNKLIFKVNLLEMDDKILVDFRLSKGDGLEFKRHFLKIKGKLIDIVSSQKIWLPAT
Description: as §2

DU145 = test: Cytotoxicity on DU145 cancer cell line; assay type: cell-based; details: Homo sapiens, DU-145; DU145 prostate cancer; 96 h; 0.01-100 μM
Description: The effect of the compounds described herein on tumor cells was determined by the assay described by Latham et al., Oncogene 12:827-837 (1996). Tumor cells K562 (chronic myelogenous leukemia; leukemia cell line +ve for Bcr-Abl) or DU145 (prostate cancer) were plated in 12-well dishes at a cell density of 2.5×10^4 cells per well. The plated cells were treated 24 h. later with a DMSO solution of a compound as described herein at multiple concentrations ranging from 0.01 μM to 100 μM. The plates were examined 96 h. later under an inverted microscope, Olympus CK-2 using a 10× objective, and compound activity was noted by physical observation. When necessary, the total number of viable cells was determined by trypsinizing the wells and counting the number of viable cells, as determined by trypan blue exclusion, using a hemacytometer.

## CN1CCN(c2ccc(Nc3ncc(/C=C/C#N)c(NC4CCCC4)n3)cc2)CC1 [Compound 8h, 3-{4-Cyclopentylamino-2-[4-(4-methylpiperazin-1-yl)phenylamino]pyrimidin-5-yl}acrylonitrile]
K562
  GI50: 40 nM
U937
  GI50: 100 nM
BT474
  GI50: 2500 nM
KG-1a
  GI50: < 20 nM
MIA-PaCa-2
  GI50: > 5000 nM
CEM
  GI50: 1500 nM
DAUDI
  GI50: 100 nM
U266
  GI50: 1000 nM
MES-SA
  GI50: 20 nM
HELA
  GI50: > 5000 nM
HEL
  GI50: < 250 nM
Z138C
  GI50: 3000 nM
32D-T315I
  GI50: 500 nM
HCT-116
  GI50: 500 nM
PIM1
  IC50: > 1000 nM
JAK3
  IC50: 100 to 1000 nM
ABL1
  IC50: < 100 nM
CDK6/cyclin D1
  IC50: 100 to 1000 nM
RSK4
  IC50: < 100 nM
c-Src
  IC50: < 100 nM
CDK5/p35
  IC50: > 10000 nM
CK2a2
  IC50: 100 to 1000 nM
FGFR1
  IC50: < 100 nM
PIM2
  IC50: > 1000 nM
Aurora A
  IC50: 100 to 1000 nM
FLT3
  IC50: < 100 nM
PLK2
  IC50: > 1000 nM
CHK1
  IC50: 100 to 1000 nM
DU145
  IC50: < 1000 nM
